Type in all cases: in vivo
For experiment [1], the system named is Rice plants (indica cultivar ‘IR 64’). As to the kind of experiment: Test L: vigor and harvest yield of rice crop outdoors, Dhamtari. To be noted: for harvest yield: controls 2630 kg/ha. The procedure:
(§1) To evaluate the effect of application of a compound of the invention on the vigor of rice crops grown under outdoor conditions, Tests 1 through 0 were conducted. “a.i.” refers to the amount of active ingredient applied.
Rice plants (indica cultivar ‘IR 64’) were transplanted into flooded 6 m×5 m test plots of clay loam soil in the Dhamtari district, State of Chhattisgarh, India, in the early spring season, and grown using local agronomic practices. After 79 days, in the hot season before monsoon arrival, aqueous mixtures containing 30 g a.i./ha of indoxacarb in form of STEWARD® Insecticide, 20 g a.i./ha of chlorantraniliprole, and 6.25, 12.5, 25 or 50 g a.i./ha of Compound 3 were applied to the foliage of the rice plants at in a spray volume of 500 L/ha using a backpack sprayer. Plots of control rice plants were sprayed with an aqueous mixture containing 30 g a.i./ha of indoxacarb in form of STEWARD® Insecticide and 20 g a.i./ha of chlorantraniliprole (i.e. no Compound 3). Each treatment and control was replicated three times, and the plots were arranged in a randomized complete block design. At the time of application of Compound 3, the pest level of rice brown planthopper (Nilaparvata lugens) was high, i.e. above the level considered economically significant.
Even though the pest level was high, at the time of treatment the plants had already reached full height and produced panicles, so the treatment with Compound 3 was too late to noticeably increase crop vigor rated by general external appearance (e.g., plant height, number of panicles). Nevertheless, the treatments substantially benefited crop vigor as measured by harvest yield. Harvest yields from the crops treated with 6.25, 12.5, 25 and 50 g a.i./ha of Compound 3 were 4630, 4830, 4730 and 4930 kg/ha, respectively, compared to 2630 kg/ha from the untreated controls.

In experiment [2] the test system is Rice plants (indica cultivar). As to the kind of experiment: Test M: vigor of direct seeded rice crop outdoors, An Giang, Vietnam. To be noted: all application rates (6.25, 12.5, 25 or 50 g a.i./ha) with 30 g a.i./ha indoxacarb and 20 g a.i./ha chlorantraniliprole; 18 days after application; Nilaparvata lugens level very low. The method, then: as §1
Rice plants (indica cultivar) were direct seeded into flooded 6 m×5 m test plots of clay loam soil in An Giang Province of Vietnam shortly before the monsoon, and grown using local agronomic practices. After 42 days, at the beginning of the wet season, aqueous mixtures containing 30 g a.i./ha of indoxacarb in form of STEWARD® Insecticide, 20 g a.i./ha of chlorantraniliprole, and 6.25, 12.5, 25 or 50 g a.i./ha of Compound 3 were applied to the foliage of the rice plants at in a spray volume of 400 L/ha using a motorized sprayer. Plots of control rice plants were sprayed with an aqueous mixture containing 30 g a.i./ha of indoxacarb in form of STEWARD® Insecticide and 20 g a.i./ha of chlorantraniliprole (i.e. no Compound 3). Each treatment and control was replicated three times, and the plots were arranged in a randomized complete block design. At the time of application of Compound 3, the pest level of rice brown planthopper (Nilaparvata lugens) was very low.

Experiment [3] relates to Rice plants (indica cultivar ‘Swarna’). As to the kind of experiment: Test N: harvest yield of rice crop outdoors, two foliar applications, Bargarh. The note with it: applied twice, Nilaparvata lugens level high, controls 620 kg/ha. The procedure: as §1
Rice plants (indica cultivar ‘Swarna’) were transplanted into flooded 4 m×3 m test plots of clay loam soil in the Bargarh district, Orissa, India, during the rainy season, and grown using local agronomic practices. After 70 days, aqueous mixtures of Compound 3 were applied to the foliage of the rice plants at 12.5, 25 or 50 g a.i./ha in a spray volume of 400 L/ha using a backpack sprayer. Plots of unsprayed rice plants were used as controls. Each treatment and control was replicated three times, and the plots were arranged in a randomized complete block design. At the time of application of Compound 3, the pest level of rice brown planthopper (Nilaparvata lugens) was high, i.e. much above the level considered economically significant. 14 days after the first treatment, the foliar applications of aqueous mixtures of Compound 3 were repeated at the same application rates in a spray volume of 400 L/ha.
Harvest yields from the crops treated with 12.5, 25 and 50 g a.i./ha of Compound 3 were 3190, 3660 and 4220 kg/ha, respectively, compared to 620 kg/ha from the untreated controls.

Experiment [4] has as its system potato leafhopper (Empoasca fabae). As to the kind of experiment: Test E: control of potato leafhopper on Soleil bean plant, contact and/or systemic. The note with it: 144 h, assessed after 6 days, read-out: control efficacy: mortality. The method, then:
For evaluating control of potato leafhopper (Empoasca fabae) through contact and/or systemic means, the test unit consisted of a small open container with a 5-6-day-old Soleil bean plant (primary leaves emerged) inside. White sand was added to the top of the soil and one of the primary leaves was excised prior to application.
Test compounds were formulated and sprayed at 250, 50, 10 and/or 2 ppm, and the tests were replicated three times as described for Test A. After spraying, the test units were allowed to dry for 1 h before they were post-infested with 5 potato leafhoppers (18-21-day-old adults). A black, screened cap was placed on the top of each test unit, and the test units were held for 6 days in a growth chamber at 24° C. and 70% relative humidity. Each test unit was then visually assessed for insect mortality.

Experiment [5] has as its system Rice plants (indica cultivar ‘IR-64’). As to the kind of experiment: Test O: harvest yield of rice crop outdoors, Bargarh. The note with it: 12.5, 25 and 50 g a.i./ha (method: 6.25, 12.5, 25 or 50), with indoxacarb and chlorantraniliprole, controls 1370 kg/ha. The procedure: as §1
Rice plants (indica cultivar ‘IR-64’) were transplanted into flooded 5 m×5 m test plots of clay loam soil the Bargarh district, Orissa, India, at the end of the winter season, and grown using local agronomic practices. After 79 days, aqueous mixtures containing 30 g a.i./ha of indoxacarb in form of STEWARD® Insecticide, 20 g a.i./ha of chlorantraniliprole, and 6.25, 12.5, 25 or 50 g a.i./ha of Compound 3 were applied to the foliage of the rice plants at in a spray volume of 500 L/ha using a backpack sprayer. Plots of control rice plants were sprayed with an aqueous mixture containing 30 g a.i./ha of indoxacarb in form of STEWARD® Insecticide and 20 g a.i./ha of chlorantraniliprole (i.e. no Compound 3). Each treatment and control was replicated three times, and the plots were arranged in a randomized complete block design. At the time of application of Compound 3, the pest level of rice brown planthopper (Nilaparvata lugens) was high, i.e. much above the level considered economically significant.
Harvest yields from the crops treated with 12.5, 25 and 50 g a.i./ha of Compound 3 were 2470, 3430, 3470 and 4600 kg/ha, respectively, compared to 1370 kg/ha from the untreated controls.

The text below walks through data of patent US8895738B2, “Mesoionic pyrido [1, 2-A] pyrimidine pesticides” (E I du Pont de Nemours and Company, priority 2010, dated 2014).

The structures appear in SMILES notation. Counter-ions that a name gives are not always drawn.

With `O=c1c(-c2cccc(C(F)(F)F)c2)c([O-])[n+](Cc2cncnc2)c2ccccn12` [Compound 3, 2-hydroxy-4-oxo-1-(5-pyrimidinylmethyl)-3-[3-(trifluoromethyl)phenyl]-4H-pyrido[1,2-a]pyrimidinium inner salt], the harvest yield is 4630 kg/ha in experiment [1] (6.25 g a.i./ha with 30 g a.i./ha indoxacarb and 20 g a.i./ha chlorantraniliprole); 4830 kg/ha in experiment [1] (12.5 g a.i./ha with 30 g a.i./ha indoxacarb and 20 g a.i./ha chlorantraniliprole); 4730 kg/ha in experiment [1] (25 g a.i./ha with 30 g a.i./ha indoxacarb and 20 g a.i./ha chlorantraniliprole); 4930 kg/ha in experiment [1] (50 g a.i./ha with 30 g a.i./ha indoxacarb and 20 g a.i./ha chlorantraniliprole); 3190 kg/ha in experiment [3] (12.5 g a.i./ha foliar); 3660 kg/ha in experiment [3] (25 g a.i./ha foliar). For the same compound, the harvest yield worked out at 4220 kg/ha in experiment [3] (50 g a.i./ha foliar); 2470 kg/ha in experiment [5] (1st of four values); 3430 kg/ha in experiment [5] (2nd of four values); 3470 kg/ha in experiment [5] (3rd of four values); 4600 kg/ha in experiment [5] (4th of four values). For the same compound, the “crop vigor (visual rating, 0 to 200% scale, control = 100%)” value in experiment [1] (all application rates (6.25, 12.5, 25 or 50 g a.i./ha) with 30 g a.i./ha indoxacarb and 20 g a.i./ha chlorantraniliprole, 21 days after application, Nilaparvata lugens level high) is 100%; in experiment [2] it was 100%. The mortality (in general, the share of the test organisms that died) at 10 ppm in experiment [4] (sprayed at 10 ppm) is ≥ 80%. In addition, the mortality at 50 ppm in experiment [4] (sprayed at 50 ppm) is ≥ 80%. Further, the mortality at 250 ppm in experiment [4] (sprayed at 250 ppm) was ≥ 80%.
